From article PMC9944328 (Nature Communications, 2023)
Like-named read-outs stand apart in the source and are kept apart here.

What was measured:
[1] = tested on: SSTR2 Y302A mutant; parameters: method as in earlier work; conditions: Y302(7.43)A; ref 20 of peer review file (Zhao, W. et al., 2022); cited from earlier work
[2] = target: T1, SSTR3 mutants (Homo sapiens, UniProt P32745, M193I); experiment: SSTRs Gi-mediated cAMP inhibition, GloSensor, HEK293 (SSTR3 mutants); assay type: cell-based; parameters: Bottom / Top / Span / Top (best-fit): unit not given here
T1 construct: The human full-length SSTRs and mutants were cloned into the pcDNA3.1+ vector; expressed in transfected cells; host or cells: HEK293 (ATCC, CRL-1573)
Method: (§1) The levels of the intracellular 3′, 5′-cyclic AMP (cAMP) were measured by the GloSensor cAMP assay (Promega) as described in the previous studies[28],[41] which has been widely used. The human full-length SSTRs and mutants were cloned into the pcDNA3.1+ vector with a HA signal sequence followed by a Flag tag at the N-terminus. […] Cells were then co-transfected with SSTR wild-type or mutants and GloSensor plasmids. After 24 h of transfection, the cells were dissociated with TrypLE™ Express Enzyme (1X) (Thermo Fisher Scientific) and collected by centrifugation at 500 × g for 5 min. Then the collected cells were suspended in Hank’s balanced salt solution [HBSS (Thermo Fisher Scientific)] supplemented with […] potassium salt solution (YEASEN), and then the suspension cells were seeded into 96-well plates with 90 μl/well. After incubating at room temperature for 40 min, 5 μM forskolin and ligands diluted in HBSS were added to each well and the plates were incubated at room temperature for 15 min. […] signals were measured using the Synergy H1 microplate reader (BioTek) and the data presented are means of at least three independent experiments.

[3] = target: SSTR3 mutants (Homo sapiens, UniProt P32745, F296D); experiment: as above; assay type: cell-based; parameters: Bottom / Top / Span / Top (best-fit): unit not given here
Method: as §1

[4] = target: SSTR2 mutants (Homo sapiens, UniProt P30874, N276A);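 further: Read-out is the BRET ratio between Nluc-fused β-arrestin 1 and the early endosome marker FYVE-mVenus, measured after ligand addition with coelenterazine h as substrate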
Chain of SSTR2 mutants (P30874 whole entry N276A, the tested form may be a part): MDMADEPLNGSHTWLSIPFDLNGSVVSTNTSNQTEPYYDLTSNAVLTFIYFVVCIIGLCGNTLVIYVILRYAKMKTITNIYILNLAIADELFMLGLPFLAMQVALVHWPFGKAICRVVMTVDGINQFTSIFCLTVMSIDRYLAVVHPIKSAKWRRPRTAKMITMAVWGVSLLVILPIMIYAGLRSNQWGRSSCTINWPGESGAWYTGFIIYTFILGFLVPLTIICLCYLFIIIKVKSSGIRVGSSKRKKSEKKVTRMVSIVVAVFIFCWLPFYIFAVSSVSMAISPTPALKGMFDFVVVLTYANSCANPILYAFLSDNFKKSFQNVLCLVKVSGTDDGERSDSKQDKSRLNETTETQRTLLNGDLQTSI

Chain of SSTR3 mutants (Homo sapiens, UniProt P32745, F296D) (P32745 whole entry F296D): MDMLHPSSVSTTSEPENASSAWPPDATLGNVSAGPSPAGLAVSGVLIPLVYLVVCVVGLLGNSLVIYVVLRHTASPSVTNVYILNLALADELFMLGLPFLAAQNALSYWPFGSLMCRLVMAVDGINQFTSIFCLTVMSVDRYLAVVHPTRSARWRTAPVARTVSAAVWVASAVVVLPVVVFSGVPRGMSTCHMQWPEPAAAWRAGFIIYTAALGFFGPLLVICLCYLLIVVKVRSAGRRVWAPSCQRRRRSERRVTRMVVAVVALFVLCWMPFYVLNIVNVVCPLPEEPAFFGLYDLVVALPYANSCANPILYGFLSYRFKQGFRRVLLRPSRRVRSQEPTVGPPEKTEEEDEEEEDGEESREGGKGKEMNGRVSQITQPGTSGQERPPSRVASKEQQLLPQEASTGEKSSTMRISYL
T1 sequence (P32745 whole entry M193I): as the sequence (P32745 whole entry F296D) above, with M193I, D296F counted along it

For `C[C@@H](O)[C@@H]1NC(=O)[C@H](CCCCN)NC(=O)[C@@H](Cc2c[nH]c3ccccc23)NC(=O)[C@H](Cc2ccccc2)NC(=O)[C@@H](NC(=O)[C@H](N)Cc2ccccc2)CSSC[C@@H](C(=O)N[C@H](CO)[C@@H](C)O)NC1=O` [octreotide], the Binding to mutant [1] is given as “nearly abolished the binding”.
For `N#Cc1cccc(-c2ccc3ncc(-c4cc(F)cc(F)c4)c(N4CCC(N)CC4)c3c2)c1O` [paltusotine], the Emax ([2]; HEK293, Suppl. Table 4, SSTR3 M193(45.52)I, n=3) was 38.8 ± 17.4%, the “Fold of WT” value ([2]; Suppl. Table 4, SSTR3 M193(45.52)I) was 2.89 and the EC50 ([2]; Suppl. Table 4, SSTR3 M193(45.52)I, n=3) was 184 ± 6.02 nM. For the same compound, the Bottom ([2]; best-fit, SSTR3 M193I-1) was -5.898, the EC50 ([2]; best-fit, SSTR3 M193I-1) was 590 nM and the LogEC50 ([2]; best-fit, SSTR3 M193I-1) was -6.229. For the same compound, the Span ([2]; best-fit, SSTR3 M193I-1) was 76.32, the Top ([2]; best-fit, SSTR3 M193I-1) was 70.42 and the Bottom ([2]; best-fit, SSTR3 M193I-2) was 0.4332. The LogEC50 ([2]; best-fit, SSTR3 M193I-2) was ~ -3.924, the Span ([2]; best-fit, SSTR3 M193I-2) was ~ 6676 and the Top ([2]; best-fit, SSTR3 M193I-2) was ~ 6677. For the same compound, the Bottom ([2]; best-fit, SSTR3 M193I-3) was 0.4332, the LogEC50 ([2]; best-fit, SSTR3 M193I-3) was ~ -3.924 and the Span ([2]; best-fit, SSTR3 M193I-3) was ~ 6676. For the same compound, the Top ([2]; best-fit, SSTR3 M193I-3) was ~ 6677, the EC50 [3] was 309 ± 6.3 nM and the Emax ([3]; HEK293) was 65.5 ± 6.4%. The “Fold of WT” value ([3]; Suppl. Table 4, SSTR3 F296(7.35)D) was 4.84, the Bottom ([3]; best-fit, SSTR3 F296D-1) was 5.089 and the LogEC50 ([3]; best-fit, SSTR3 F296D-1) was -6.01. It also gave a Span ([3]; best-fit, SSTR3 F296D-1) of 99.77, a Top ([3]; best-fit, SSTR3 F296D-1) of 104.9 and an EC50 ([3]; best-fit, SSTR3 F296D-1, read-out: EC50) of 978 nM. The Bottom ([3]; best-fit, SSTR3 F296D-2) was 18.98, the LogEC50 ([3]; best-fit, SSTR3 F296D-2) was -6.627 and the Span ([3]; best-fit, SSTR3 F296D-2) was 120. For the same compound, the Top ([3]; best-fit, SSTR3 F296D-2) was 139, the EC50 ([3]; best-fit, SSTR3 F296D-2, read-out: EC50) was 236 nM and the Bottom ([3]; best-fit, SSTR3 F296D-3) was 12.18. For the same compound, the LogEC50 ([3]; best-fit, SSTR3 F296D-3) was -6.94, the Span ([3]; best-fit, SSTR3 F296D-3) was 133.1 and the Top ([3]; best-fit, SSTR3 F296D-3) was 145.3. For the same compound, the EC50 ([3]; best-fit, SSTR3 F296D-3, read-out: EC50) was 115 nM and the Emax [4] was 81 ± 1.71%.
